Results: doi:10.1101/2024.12.09.627564, “Cannabinoid inhibition of mechanosensitive K^+ channels” (bioRxiv, 2024)
Like-named read-outs stand apart in the source and are kept apart here.

Columns and labels:
Homo sapiens TRAAK = target: T1, Homo sapiens TRAAK (Homo sapiens, UniProt Q9NYG8); test: Excised inside-out patch recording of TRAAK from Xenopus oocytes; type: biochemical
T1 construct: The transcribed messages encode H. sapiens TRAAK amino acids 1–393; expressed in transfected cells; host or cells: Xenopus laevis oocytes, cRNA injection
T1 sequence (Q9NYG8 1-393): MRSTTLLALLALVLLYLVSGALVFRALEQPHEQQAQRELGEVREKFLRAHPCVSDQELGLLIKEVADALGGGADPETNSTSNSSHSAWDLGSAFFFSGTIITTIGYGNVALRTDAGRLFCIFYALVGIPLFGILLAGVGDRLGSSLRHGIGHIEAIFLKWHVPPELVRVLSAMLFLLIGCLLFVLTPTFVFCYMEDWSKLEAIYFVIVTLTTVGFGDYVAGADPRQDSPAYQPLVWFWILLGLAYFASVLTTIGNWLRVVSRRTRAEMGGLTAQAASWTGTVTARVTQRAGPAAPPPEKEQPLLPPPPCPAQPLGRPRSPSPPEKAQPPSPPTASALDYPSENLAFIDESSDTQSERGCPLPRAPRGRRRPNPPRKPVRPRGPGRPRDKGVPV
Excerpt: For patch clamp recording from Xenopus oocytes, genes encoding full-length Homo sapiens TRAAK (UniProt Q9NYG8–2), TREK-1 (UniProt O95069), and TREK-2 (UniProt P57789) were codon optimized for eukaryotic expression, synthesized (Genewiz), and cloned into a modified pGEMHE vector using Xho1 and EcoR1 restriction sites. The transcribed messages encode H. sapiens TRAAK amino acids 1–393, TREK-1 amino acids 1–426, or TREK-2 amino acids 1–538 with an additional three amino acids (SNS) at the C terminus. TRAAK mutants were introduced by polymerase chain reaction (PCR). Linearized DNA was transcribed in vitro using T7 polymerase. Complementary RNA (0.1 to 10 ng for TRAAK, TREK-1, TREK-2, and mutants) in 50 nL H2O was injected into Xenopus laevis oocytes extracted from anesthetized frogs. Currents were recorded at 25 °C from inside-out patches excised from oocytes 1 to 5 d after RNA injection. The pipette solution contained 15 mM KCl, 135 mM NaCl, 2 mM MgCl2, and 10 mM HEPES (pH = 7.4 with KOH) and the bath solution contained 150 mM KCl and 10 mM HEPES (pH = 7.1 with KOH). Borosilicate glass pipettes were pulled to 2–5 MΩ resistance.
Patches were evaluated with voltage-step protocols to confirm TRAAK expression and minimal non-specific leak based on reversal potential. Currents were recorded using an Axopatch 200B amplifier (Molecular Devices) at a bandwidth of 1 kHz and digitized with an Digidata 1550B (Molecular Devices) at 100–500 kHz using pClamp10.7 software. Pressure was applied with a second-generation high-speed pressure clamp device (HSPC-2-SB, ALA Scientific Instruments). Aggregated data were from patches from n ≥ 2 different cells on different days. No relevant differences were observed between patches from different cells. In an effort to minimize variability associated with differences in resting membrane tension, we targeted patches with low basal curvature and low resting channel activity and ensured measured pressure difference across the patch was as close to zero as possible at rest to prevent mechanical activation of channels. Data were analyzed using Clampfit 10.7, Excel, and Graphpad Prism software. For voltage families, the data were decimated 100x and plotted in Prism. Statistical analysis was conducted with Dunnett’s multiple comparisons test after an ordinary one-way ANOVA using Prism software.
To avoid cannabinoid absorption to plastic, cannabinoid solutions were made in glass vials and diluted by weight, perfusion was performed using glass tubing pulled from borosilicate glass Pasteur pipettes (Fisherbrand, Cat# 13–678-20C), and recordings were performed in glass chambers. Channel activity was continuously recorded during perfusion steps. Patches were exposed to each cannabinoid concentration until a stable current level was reached (0.5–2 minutes). CBD (Cayman Chemical cat#90080) was prepared as a 10mM stock solution in DMSO, CBN (Cayman Chemical cat#25495) was prepared as a 80mM stock solution in DMSO, CBDV (Phytolab Cat#85955) was prepared as a 10mM stock solution in DMSO, and CBDP (Cayman Chemical cat#33611) was purchased as a 2.9 mM stock solution in methanol. Cannabinoids were serially diluted in bath solution to achieve working concentrations of 50 μM to 10 nM. Bath volume in the recording chamber was minimized by suction and drug-containing solutions were delivered three times to ensure establishment of desired concentration in the recording chamber. Cannabinoids were applied from low to high concentration. The recording chamber and perfusion system were washed extensively with methanol after every trial.
The effects of cannabinoids on channel activity were quantified by the reduction in channel current evoked at 0 mV during a gap-free recording or during 200 ms long voltage families with steps ranging from −100 to +100 mV. Currents were normalized to those prior to cannabinoid application to facilitate comparisons across different patches and cells. […]

CB1 = tested on: CB1; design: method as in PMID 27398024; conditions: partial agonism of CB1; cited from earlier work
CB2 = tested on: CB2; design: method as in PMID 27398024; conditions: partial agonism of CB2; cited from earlier work
[1] = TRAAK inhibition, relative to CBD

C=C(C)[C@@H]1CCC(C)=CC1c1c(O)cc(CCCCCCC)cc1O (stereo partly drawn) [CBDP, Cannabidiphorol]
fold more potent than CBD (Homo sapiens TRAAK; [1]): ~ 10 fold | IC50 (Homo sapiens TRAAK; wild-type TRAAK, excised patch, current at 0 mV, all glass components, read-out: IC50): 17 ± 3 nM

C=C(C)[C@@H]1CCC(C)=C[C@H]1c1c(O)cc(CCC)cc1O [CBDV, cannabidivarin]
inhibition of TRAAK channels at high concentration (Homo sapiens TRAAK; 20 μM): fully inhibits | fold less potent than CBD (Homo sapiens TRAAK; [1]): ~ 40 fold | IC50 (Homo sapiens TRAAK; wild-type TRAAK, excised patch, current at 0 mV, read-out: IC50): 5580 ± 340 nM

CCCCCc1cc(O)c2c(c1)OC(C)(C)c1ccc(C)cc1-2 [CBN, Cannabinol]
IC50 (Homo sapiens TRAAK): 107 nM | more potent than CBD (Homo sapiens TRAAK; [1]): ~ 33%
